Laboratory results as given in PubChem BioAssay AID330 (DTP/NCI, 2004).
Values joined by “and” are separate entries in the source; they are usually repeats but may differ in a detail not shown here. Equal values may be shown once. Inconclusive results and toxic doses are left out.

Test system: P388 leukemia ip, CD2F1 mice, survival T/C
Assay: NCI In Vivo Anticancer Drug Screen. Data for tumor model P388 Leukemia (intraperitoneal) in CD2F1 (CDF1) mice
Details: endpoint: median survival time, higher = longer survival
Outline: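 Mice carrying the transplanted tumor received test compound or vehicle. Survival was recorded in each group, and the value is the treated-group measurement divided by that of the vehicle-treated control group.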

[1] = dose: 50.0 mg/kg/injection, schedule: Q01DX009 (ip), vehicle: saline
[2] = dose: 50.0 mg/kg/injection, schedule: Q01DX009 (ip), vehicle: suspension in saline
[3] = dose: 100.0 mg/kg/injection, schedule: Q01DX009 (ip), vehicle: saline
[4] = dose: 100.0 mg/kg/injection, schedule: Q01DX009 (ip), vehicle: suspension in saline
[5] = dose: 200.0 mg/kg/injection, schedule: Q01DX009 (ip), vehicle: suspension in saline
[6] = dose: 50.0 mg/kg/injection, schedule: Q01DX009 (ip), vehicle: saline with Tween-80
[7] = dose: 100.0 mg/kg/injection, schedule: Q01DX009 (ip), vehicle: saline with Tween-80
[8] = dose: 200.0 mg/kg/injection, schedule: Q01DX009 (ip), vehicle: saline with Tween-80
[9] = dose: 50.0 mg/kg/injection, schedule: Q01DX005 (ip), vehicle: Klucel (hydroxypropylcellulose) (HPC)
[10] = dose: 200.0 mg/kg/injection, schedule: Q01DX005 (ip), vehicle: Klucel (hydroxypropylcellulose) (HPC)
[11] = dose: 12.5 mg/kg/injection, schedule: Q01DX009 (ip), vehicle: saline
[12] = dose: 25.0 mg/kg/injection, schedule: Q01DX009 (ip), vehicle: saline

Cl[Si]1(Cl)CCCC1
T/C (dose: 50.0 mg/kg/injection, schedule: Q01DX009 (ip), vehicle: other): 99 % of control
T/C (dose: 100.0 mg/kg/injection, schedule: Q01DX009 (ip), vehicle: other): 100 % of control
T/C (dose: 200.0 mg/kg/injection, schedule: Q01DX009 (ip), vehicle: other): 99 % of control

CCCOc1ccc2c(NCCCCNc3c4ccccc4nc4cc(OCCC)ccc34)c3ccccc3nc2c1
T/C (dose: 0.62 mg/kg/injection, schedule: Q01DX009 (ip), vehicle: other): 98 % of control
T/C (dose: 1.25 mg/kg/injection, schedule: Q01DX009 (ip), vehicle: other): 109 % of control
T/C (dose: 2.5 mg/kg/injection, schedule: Q01DX009 (ip), vehicle: other): 98 % of control
T/C (dose: 5.0 mg/kg/injection, schedule: Q01DX009 (ip), vehicle: other): 107 % of control
T/C (dose: 10.0 mg/kg/injection, schedule: Q01DX009 (ip), vehicle: other): 107 % of control

COc1cc2ccc(=O)oc2cc1O
T/C (dose: 3.75 mg/kg/injection, schedule: Q01DX009 (ip), vehicle: saline with Tween-80): 100 % of control
T/C (dose: 7.5 mg/kg/injection, schedule: Q01DX009 (ip), vehicle: saline with Tween-80): 103 % of control and 98 % of control
T/C (dose: 15.0 mg/kg/injection, schedule: Q01DX009 (ip), vehicle: saline with Tween-80): 100 % of control and 107 % of control
T/C (dose: 30.0 mg/kg/injection, schedule: Q01DX009 (ip), vehicle: saline with Tween-80): 104 % of control and 91 % of control
T/C [1]: 95 % of control
T/C [2]: 99 % of control and 106 % of control
T/C [3]: 100 % of control
T/C [4]: 104 % of control and 109 % of control
T/C (dose: 200.0 mg/kg/injection, schedule: Q01DX009 (ip), vehicle: saline): 100 % of control
T/C [5]: 107 % of control and 108 % of control
T/C (dose: 400.0 mg/kg/injection, schedule: Q01DX009 (ip), vehicle: saline): 100 % of control
T/C (dose: 400.0 mg/kg/injection, schedule: Q01DX009 (ip), vehicle: suspension in saline): 111 % of control

O=Cc1ccc(C(Cl)(Cl)Cl)nc1
T/C [6]: 105 % of control
T/C [7]: 110 % of control
T/C [8]: 115 % of control

Cc1nccn1CC(=O)c1ccccc1
T/C (dose: 60.0 mg/kg/injection, schedule: Q01DX005 (ip), vehicle: saline with Tween-80): 104 % of control
T/C (dose: 120.0 mg/kg/injection, schedule: Q01DX005 (ip), vehicle: saline with Tween-80): 104 % of control

CCCCCNC(=O)OCc1c(COC(=O)NCCCCC)c(-c2ccc(Cl)c(Cl)c2)n2c1CCC2
T/C (dose: 6.25 mg/kg/injection, schedule: Q01DX009 (ip), vehicle: distilled water + Tween-80): 113 % of control
T/C (dose: 12.5 mg/kg/injection, schedule: Q01DX009 (ip), vehicle: distilled water + Tween-80): 101 % of control and 110 % of control
T/C (dose: 25.0 mg/kg/injection, schedule: Q01DX009 (ip), vehicle: distilled water + Tween-80): 108 % of control and 116 % of control
T/C (dose: 100.0 mg/kg/injection, schedule: Q01DX009 (ip), vehicle: distilled water + Tween-80): 165 % of control

Cc1cc(NC(=S)SCc2ccc(F)cc2)c([N+](=O)[O-])cc1C
T/C [2]: 93 % of control
T/C [4]: 90 % of control
T/C [5]: 98 % of control

Cc1c2c[n+]([O-])ccc2c(C)c2c1c1ccccc1n2C
T/C (dose: 12.5 mg/kg/injection, schedule: Q04DX002 (ip), vehicle: saline with Tween-80): 101 % of control
T/C (dose: 25.0 mg/kg/injection, schedule: Q04DX002 (ip), vehicle: saline with Tween-80): 101 % of control
T/C (dose: 50.0 mg/kg/injection, schedule: Q04DX002 (ip), vehicle: saline with Tween-80): 103 % of control
T/C (dose: 100.0 mg/kg/injection, schedule: Q04DX002 (ip), vehicle: saline with Tween-80): 107 % of control
T/C (dose: 200.0 mg/kg/injection, schedule: Q04DX002 (ip), vehicle: saline with Tween-80): 113 % of control

CN1c2cc3ccccc3cc2N(C)c2cc3ccccc3cc21
T/C [9]: 90 % of control
T/C [10]: 88 % of control

CCOC(=O)c1cnc(Sc2c([N+](=O)[O-])ncn2C)nc1N
T/C (dose: 12.5 mg/kg/injection, schedule: Q01DX009 (ip), vehicle: Klucel (hydroxypropylcellulose) (HPC)): 89 % of control
T/C (dose: 25.0 mg/kg/injection, schedule: Q01DX009 (ip), vehicle: Klucel (hydroxypropylcellulose) (HPC)): 92 % of control
T/C (dose: 50.0 mg/kg/injection, schedule: Q01DX009 (ip), vehicle: Klucel (hydroxypropylcellulose) (HPC)): 86 % of control and 91 % of control

O=NN(CCF)C(=O)NC12CC3CC(CC(C3)C1)C2
T/C (dose: 22.0 mg/kg/injection, schedule: Q04DX003 (ip), vehicle: saline with Tween-80): 175 % of control
T/C (dose: 33.0 mg/kg/injection, schedule: Q04DX003 (ip), vehicle: saline with Tween-80): 195 % of control
T/C (dose: 50.0 mg/kg/injection, schedule: Q04DX003 (ip), vehicle: saline with Tween-80): 225 % of control
T/C (dose: 75.0 mg/kg/injection, schedule: Q04DX003 (ip), vehicle: saline with Tween-80): 240 % of control
T/C (dose: 100.0 mg/kg/injection, schedule: Q04DX003 (ip), vehicle: Klucel (hydroxypropylcellulose) (HPC)): 259 % of control

COc1ccc(OC(=O)Nc2ccc(Cl)c(C(F)(F)F)c2)c(Cl)c1
T/C (dose: 1.56 mg/kg/injection, schedule: Q01DX009 (ip), vehicle: saline): 100 % of control
T/C (dose: 3.12 mg/kg/injection, schedule: Q01DX009 (ip), vehicle: saline): 94 % of control
T/C (dose: 6.25 mg/kg/injection, schedule: Q01DX009 (ip), vehicle: saline): 88 % of control and 95 % of control
T/C [11]: 96 % of control
T/C [12]: 93 % of control
T/C (dose: 100.0 mg/kg/injection, schedule: Q01DX009 (ip), vehicle: saline + alcohol): 101 % of control
T/C (dose: 200.0 mg/kg/injection, schedule: Q01DX009 (ip), vehicle: saline + alcohol): 100 % of control

O=N[O-].O=N[O-].O=[N+]([O-])O.[Co+3].[NH-]CC[NH-].[NH-]CC[NH-]
T/C [11]: 104 % of control
T/C [12]: 98 % of control
T/C [1]: 100 % of control and 98 % of control
T/C [3]: 100 % of control

O=S(=O)(CS(=O)(=O)c1ccc(Cl)c(Cl)c1)c1ccc(Cl)c(Cl)c1
T/C (dose: 60.0 mg/kg/injection, schedule: Q01DX005 (ip), vehicle: Klucel + Tween-80): 94 % of control
T/C (dose: 120.0 mg/kg/injection, schedule: Q01DX005 (ip), vehicle: Klucel + Tween-80): 102 % of control

CCOC(=O)NN(C(=O)OCC)C(C)(C)C(C)=O
T/C (dose: 100.0 mg/kg/injection, schedule: Q01DX001 (ip), vehicle: saline): 100 % of control
T/C (dose: 200.0 mg/kg/injection, schedule: Q01DX001 (ip), vehicle: saline): 100 % of control and 106 % of control
T/C (dose: 400.0 mg/kg/injection, schedule: Q01DX001 (ip), vehicle: saline): 100 % of control and 108 % of control

c1ccc(C(c2ccccc2)c2cc(-c3cc(C(c4ccccc4)c4ccccc4)[nH]n3)n[nH]2)cc1
T/C (dose: 60.0 mg/kg/injection, schedule: Q01DX005 (ip), vehicle: distilled water + Tween-80): 97 % of control
T/C (dose: 120.0 mg/kg/injection, schedule: Q01DX005 (ip), vehicle: distilled water + Tween-80): 102 % of control
T/C (dose: 240.0 mg/kg/injection, schedule: Q01DX005 (ip), vehicle: distilled water + Tween-80): 102 % of control

C=C1C(=O)OC2CC(C)/C=C\C(=O)C(C)(O)C(O)C(O)C12 (centres undefined) (tested in a mixture with another compound)
T/C (dose: 12.5 mg/kg/injection, schedule: Q01DX001 (ip), vehicle: Klucel (hydroxypropylcellulose) (HPC)): 113 % of control
T/C (dose: 25.0 mg/kg/injection, schedule: Q01DX001 (ip), vehicle: Klucel (hydroxypropylcellulose) (HPC)): 105 % of control

CN1C=CC=CC1=C1C(=O)c2ccccc2C1=O
T/C [9]: 96 % of control
T/C (dose: 100.0 mg/kg/injection, schedule: Q01DX005 (ip), vehicle: Klucel (hydroxypropylcellulose) (HPC)): 104 % of control
T/C [10]: 107 % of control

CC1(C(=O)O)C2C=CC3(CN(c4ccccc4)C(=O)C31c1ccccc1)O2 (centres undefined)
T/C (dose: 60.0 mg/kg/injection, schedule: Q01DX005 (ip), vehicle: Klucel (hydroxypropylcellulose) (HPC)): 89 % of control
T/C (dose: 120.0 mg/kg/injection, schedule: Q01DX005 (ip), vehicle: Klucel (hydroxypropylcellulose) (HPC)): 100 % of control
T/C (dose: 240.0 mg/kg/injection, schedule: Q01DX005 (ip), vehicle: Klucel (hydroxypropylcellulose) (HPC)): 102 % of control

Cc1nc2c([N+](=O)[O-])c(N3CCN(c4ccccc4)CC3)c([N+](=O)[O-])cc2[nH]1
T/C [6]: 100 % of control
T/C [7]: 100 % of control
T/C [8]: 99 % of control

COc1ccc(/C=C/C(C)=O)c(OC)c1
T/C (dose: 100.0 mg/kg/injection, schedule: Q01DX001 (ip), vehicle: Klucel (hydroxypropylcellulose) (HPC)): 108 % of control
T/C (dose: 200.0 mg/kg/injection, schedule: Q01DX001 (ip), vehicle: Klucel (hydroxypropylcellulose) (HPC)): 101 % of control
